Assay results taken from patent EP4772186A1, “USE AND COMPOSITION OF POSTBIOTIC OF LACTOBACILLUS PARACASEI ET-22” (Inner Mongolia Yili Industrial Group Co., Ltd., priority 2023, dated 2025).

Assays:
[1] = tested on: halitosis virulence factors, including cdl, fadA, mgl, and gtfb; assay: RT-PCR of virulence factors in multi-species biofilm; type: cell-based; settings: compared with CK group, 2^-△△CT method
Description: (§1) 100 µl of saliva was added to a 24-well plate, then 100 µl of the corresponding concentration solution was added respectively to the experimental groups, and finally 800 µl of SHI medium was added. The plate was placed in an anaerobic box and cultured anaerobically at 37°C for 10 hours. Then, the supernatant was discarded, and the multi-species biofilm adhered to the well plate was obtained. After discarding the supernatant from the incubated biofilm, the biofilm adhered to the bottom of the well plate was re-suspended with sterile water by pipetting, transferred to a 1.5 ml centrifuge tube, and stored until gene sequencing was performed.
(§2) This example evaluated the effects of lysate, NAD, 2-hydroxy-3-phenylpropionic acid, polypeptide GP(Hyp)GAG, and peptidoglycan on halitosis virulence factors, including cdl, fadA, mgl, and gtfb. The gene cdl can regulate the expression of L-cysteine […], which can catalyze the degradation of protein substrate to produce VSC, thereby causing halitosis. Fusobacterium nucleatum secretes an amyloid-like adhesin (fadA) via the fap2-like autotransporter protein to enhance its virulence. […]
(§3) After the sample RNA was reverse-transcribing into cDNA, RT-PCR reaction was performed to detect biofilm-related virulence factors. Experimental results were calculated using the 2^-△△CT method. […]

[2] = tested on: fadA; assay: as above; type: cell-based, Fusobacterium nucleatum; settings: relative to ET-22 viable bacteria (ET22-L) and ET-22 heat-inactivated bacteria (ET22-HK)
Description: as §1, §2, §3

[3] = tested on: biofilm; assay: scanning electron microscopy (SEM) of biofilm on HA disc; type: cell-based, halitosis subjects (saliva); settings: pure components 100 µg/ml, others from 1.0×10^9 CFU/ml, 37°C 10 hours
Description: (§4) Lysate group: A hydroxyapatite (HA) disc was placed in a 96-well plate. 10 µl of saliva was added to the 96-well plate, followed by separate addition of ET-22 viable bacteria (1.0×10^9 CFU/ml), ET-22 heat-inactivated bacterial cells (obtained by inactivating viable bacteria at 1.0×10^9 CFU/ml), and lysate (obtained by inactivating and filtering viable bacteria at 1.0×10^9 CFU/ml), each at 10 µl. Then, 80 µl of SHI medium was added. The 96-well plate was placed in an anaerobic box and cultured anaerobically at 37°C for 10 hours.
as §4, with “NAD” for “Lysate”, “heat-inactivating” for “inactivating”, “NAD (100 µg/ml),” for “lysate (obtained by inactivating and filtering viable bacteria at 1.0×10^9 CFU/ml),”
2-hydroxy-3-phenylpropionic acid group: A hydroxyapatite (HA) disc was placed in a 96-well plate. 10 µl of saliva was added to the 96-well plate, followed by separate addition of ET-22 viable bacteria (1.0×10^9 CFU/ml), ET-22 heat-inactivated bacterial cells (obtained by heat-inactivating viable bacteria at 1.0×10^9 CFU/ml), and 2-hydroxy-3-phenylpropionic acid (100 µg/ml), each at 10 µl. […]

`O=C(O)C(O)Cc1ccccc1` (stereo not drawn) [2-hydroxy-3-phenylpropionic acid] was tested, and the “expression of virulence factors (cdl, fadA, mgl, gtfb)” value [1] was “significantly regulate”, the “inhibitory effect on the expression of virulence factor fadA” value [2] was “better” and the “biofilm structure (SEM observation)” value [3] was “the number of bacterial cell layers decreases, and the biofilm becomes thinner”.
